Reference: patent US20050288215A1, “Inhibition of nuclear export as a treatment for cardiac hypertrophy and heart failure” (priority 2004, published 2005)

Columns and labels:
Format in all cases: cell-based
[1] = tested on: neonatal rat ventricular myocytes (NRVM); assay: Total cellular protein by Bradford assay
Description: (§1) Neonatal rat ventricular myocyte (NRVM) preparation and culture. Hearts were dissected from 1 to 3 day-old Sprague-Dawley rats, minced, and digested with collagenase (Worthington; […]) and pancreatin (Sigma; 1× activity equivalent) in 1× Ads buffer (NaCl [116 mM], HEPES [20 mM; pH 7.4], NaH2PO4 [4.8 mM], KCl [5 mM], MgSO4 [[…]], and glucose [5.5 mM]). Cells were centrifuged through a step gradient of Percoll (Pharmacia) to separate myocytes from fibroblasts, and the myocyte pool was further enriched by pre-plating for 2 hours to remove adherent fibroblasts from the cell population. Cells were cultured overnight on dishes coated with gelatin (Sigma; 0.2%) in DMEM containing fetal bovine serum (FBS) (10%), L-glutamine (2 mM), and penicillin-streptomycin. […]
(§2) ANF competition ELISA and total protein measurements. […] Wells were washed 5× with TBS-T and exposed to TMB substrate (Kirkegaard & Perry; […]), which provides a colorimetric readout, for 30 minutes at room temperature. Reactions were terminated with H2SO4 (2N, […]) and absorbance at 450 nm detected using a Fusion Plate Reader (Perkin Elmer/Packard). […] Color development was allowed to proceed for 30 minutes prior to being measured at 595 nm using a micro-titer plate spectrophotometer (Molecular Devices).

[2] = tested on: neonatal rat ventricular myocytes (NRVM); assay: SERCA2 immunoblot analysis; conditions: 48 hours, LMB 18.5 nM (FIG. 8)
Description: (§3) Neonatal rat ventricular myocyte (NRVM) preparation and culture. Hearts were dissected from 1 to 3 day-old Sprague-Dawley rats, minced, and digested with collagenase (Worthington; […]) and pancreatin (Sigma; 1× activity equivalent) in 1× Ads buffer (NaCl [116 mM], HEPES [20 mM; pH 7.4], NaH2PO4 [4.8 mM], KCl [5 mM], MgSO4 [[…]], and glucose [5.5 mM]). Cells were centrifuged through a step gradient of Percoll (Pharmacia) to separate myocytes from fibroblasts, and the myocyte pool was further enriched by pre-plating for 2 hours to remove adherent fibroblasts from the cell population. Cells were cultured overnight on dishes coated with gelatin (Sigma; 0.2%) in DMEM containing fetal bovine serum (FBS) (10%), L-glutamine (2 mM), and penicillin-streptomycin. After overnight culture, cells were washed with serum-free medium and maintained in DMEM supplemented with Neutridoma-SP (Roche Applied Science), which contains albumin, insulin, transferrin, and other defined organic and inorganic compounds, at either 0.1% or 0.3% v/v, as indicated.
SERCA and MCIP immunoblot analysis. […] Protein concentrations were determined by Bradford Assay (Bio-Rad) and […] total protein resolved by SDS-PAGE with gradient gels (Invitrogen; 4%-20% polyacrylamide). […]

[3] = tested on: neonatal rat ventricular myocytes (NRVM); assay: RNA dot blot analysis of fetal cardiac gene transcripts; conditions: 48 hrs, LMB 18.5 nM (FIG. 2)
Description: as §3
RNA analysis. NRVM were plated on gelatin-coated 10 cm dishes (2×10^6 cells/dish). Following the indicated treatments, RNA was isolated from cardiomyocytes using Trizol Reagent (Gibco/BRL). Total RNA ([…]) was vacuum blotted onto nitrocellulose membranes (Bio-Rad) using a 96-well format dot blotter (Bio-Rad). Membranes were blocked in 4×SSC containing SDS (1%), 5× Denhardt's Reagent, sodium pyrophosphate (0.05%), and […] sonicated salmon sperm DNA (4 hrs at […]) and incubated with ^32P-end-labeled oligonucleotide probes (1×10^6 cpm/ml; 14 hrs at […]). Sequences of oligonucleotides were as follows: ANF, 5′-[…]-3; a-SK-actin 5′-[…]-3′; a-MHC 5′-[…]-3′; b-MHC 5′-[…]-3′; GAPDH 5′-[…]-3′). Blots were washed twice with 0.5×SSC containing SDS (0.1%; 10 minutes at […]) and analyzed by autoradiography.

[4] = tested on: neonatal rat ventricular myocytes (NRVM); assay: Cell volume measurements by Coulter Counter; conditions: 48 hours
Description: as §3
Cell volume measurements. Three-dimensional measurements of isolates NRVM were conducted using a Coulter Model Z2 instrument (Beckman), as previously described (Said et al., 2004). […] Cell volumes are expressed as […].

[5] = tested on: neonatal rat ventricular myocytes (NRVM); assay: α- and β-myosin heavy chain cytoblot assay
Description: as §3
α- and β-myosin heavy chain cytoblot assay. […] Cells were washed three times with PBS containing BSA (1%), luminol (Pierce) was added, and luminescence detected using a Fusion Plate Reader (Perkin Elmer/Packard).

[6] = tested on: neonatal rat ventricular myocytes (NRVM); assay: Viability: calcein AM / ethidium staining (LIVE/DEAD kit); design: key to Calcein Fluorescence / Ethidium Fluorescence: +, fluorescence; −, no fluorescence; conditions: for Calcein Fluorescence / Ethidium Fluorescence: PE (20 μM), 48 hrs
Description: as §3
Toxicity measurements. Adenylate kinase (AK) was measured in culture supernatants employing the bioluminescent ToxiLight kit (BioWhittaker) according to the manufacturer's instructions. Assays were run in a 96-well format and values measured using a Fusion Plate Reader (Perkin Elmer/Packard). Cell viability was also assessed using the LIVE/DEAD Viability/Cytotoxicity Kit (Molecular Probes). This kit employs calcein AM fluorescent dye, which is retained by viable cells, and an ethidium homodimer, which only enters cells with damaged membranes.

[7] = tested on: neonatal rat ventricular myocytes (NRVM); assay: Sarcomere organization, α-actinin indirect immunofluorescence; design: key: +, organized sarcomeres; −, disorganized sarcomeres; conditions: 48 hrs, LMB 18.5 nM
Description: as §3
Indirect immunofluorescence. NRVM (2.5×105) were plated on gelatin-coated 6-well dishes. […] Proteins were visualized with an inverted fluorescence microscope (Olympus, BH-2) at 40× magnification and images captured using a digital camera (Roper Scientific, Photometrics).

[8] = tested on: neonatal rat ventricular myocytes (NRVM); assay: Toxicity: adenylate kinase (AK) release into culture medium; conditions: 48 hours, LMB 18.5 nM (FIG. 6)
Description: as §1
Toxicity measurements. Adenylate kinase (AK) was measured in culture supernatants employing the bioluminescent ToxiLight kit (BioWhittaker) according to the manufacturer's instructions. Assays were run in a 96-well format and values measured using a Fusion Plate Reader (Perkin Elmer/Packard). Cell viability was also assessed using the LIVE/DEAD Viability/Cytotoxicity Kit (Molecular Probes). […]

[9] = tested on: neonatal rat ventricular myocytes (NRVM); assay: ANF protein by indirect immunofluorescence (perinuclear ANF); design: key to Perinuclear ANF: +, presence; −, absence; conditions: for Perinuclear ANF: LMB 18.5 nM
Description: as §3
Indirect immunofluorescence. NRVM (2.5×105) were plated on gelatin-coated 6-well dishes. Following the indicated treatments, cells were fixed with formalin (10%) in PBS, permeablized and blocked with PBS containing NP-40 (0.1%) and bovine serum albumin (BSA) (3%), and incubated in the same solution, but with primary antibodies for sarcomeric α-actinin (Sigma, mouse monoclonal; 1:200 dilution) or atrial natriuretic factor (ANF) (Peninsula Labs, rabbit polyclonal; 1:200 dilution). Cells were washed five times with PBS and incubated with fluorescein- or cy3-conjugated secondary antibodies (Jackson Labs, goat polyclonal; 1:200 dilution), followed by a brief incubation with Hoechst dye (Molecular Probes). Cells were washed five times in PBS, one time with water and sequentially covered with mounting solution (Molecular Probes, SlowFade) and glass coverslips. Proteins were visualized with an inverted fluorescence microscope (Olympus, BH-2) at 40× magnification and images captured using a digital camera (Roper Scientific, Photometrics).

[10] = tested on: neonatal rat ventricular myocytes (NRVM); assay: ANF competition ELISA, secreted ANF in culture supernatants; design: ANF induction (secreted ANF in culture supernatants): dose or concentration left out as unconfirmed; conditions: 48 hrs
Description: as §1, §2

## CCC(=C/[C@H](C)C/C=C/C(C)=C/[C@@H](C)C(=O)[C@@H](C)[C@H](O)[C@@H](C)C/C(C)=C/C(=O)O)/C=C/[C@@H]1OC(=O)C=C[C@@H]1C [LMB, leptomycin B]
[1]; PE or FBS, 72 hrs (text; FIG. 4 legend 48 hours), LMB 18.5 nM
  Agonist-induced increase in total cellular protein content: effectively blocked
[2]
  PE-induced downregulation of SERCA2 expression: appeared to repress the modest downregulation
[2]; T3 (3 nM)
  T3-induced SERCA2 protein expression: failed to alter
[3]
  PE-induced downregulation of α-MyHC transcripts: inhibited the subtle downregulation
  PE-induced β-MyHC mRNA expression: repressed
  PE-mediated induction of ANF mRNA transcripts: effectively blocked
  PE-mediated induction of α-skeletal actin (α-SK-actin) mRNA transcripts: effectively blocked
[4]; LMB 18.5 nM (FIG. 5)
  Cell size (cell volume, Coulter Counter): diminished cell size
[5]; 48 hrs, LMB 18.5 nM (FIG. 3)
  PE-induced β-MyHC protein expression: repressed
[5]; T3 (3 nM), 48 hours, LMB 18.5 nM (FIG. 7)
  T3-mediated coordinate regulation of α- and β-MyHC protein expression: no significant effect
[6]; LMB-treated cells (Table 5)
  Ethidium bromide staining (compromised membranes): not significantly stained by ethidium bromide
[6]; LMB-treated cells vs control cells (Table 5)
  Calcein dye retention (viability): retained calcein dye as effectively as control cells
[6]; LMB 2.3 nM
  Calcein Fluorescence: +
  Ethidium Fluorescence: −
[6]; LMB 4.6 nM
  Calcein Fluorescence: +
  Ethidium Fluorescence: −
[6]; LMB 9.25 nM
  Calcein Fluorescence: +
  Ethidium Fluorescence: −
[6]; LMB 18.5 nM
  Calcein Fluorescence: +
  Ethidium Fluorescence: −
[7]; stimulus FBS (5%)
  Organized Sarcomeres: −
[7]; stimulus PE (20 μM)
  Organized Sarcomeres: −
[8]
  Adenylate kinase (AK) in culture medium: did not increase AK
[9]; NRVM stimulated with PE or FBS, LMB present
  ANF immunostaining: markedly reduced
[9]; NRVM, immunofluorescence, LMB 18.5 nM (Table 3)
  ANF expression induced by prostaglandin F2a and endothelin-1: efficiently blocked ANF expression
[9]; NRVM, stimulus ET-1 (50 nM)
  Perinuclear ANF: −
[9]; NRVM, stimulus FBS (5%)
  Perinuclear ANF: −
[9]; NRVM, stimulus PE (20 μM)
  Perinuclear ANF: −
[9]; NRVM, stimulus PGF2a (10 μM)
  Perinuclear ANF: −
[10]; low nanomolar concentrations of LMB (FIG. 1)
  ANF induction (secreted ANF in culture supernatants): efficiently blocked ANF induction

## Cc1ccc2[nH]c3c(c2c1)CCCC3NC(=O)CCl (stereo not drawn) [compound 5219668, 2-chloro-N-(6-methyl-2,3,4,9-tetrahydro-1H-carbazol-1-yl)acetamide]
[1]; PE (20 μM), 48 hours, 5219668 1.25 μM (FIG. 10)
  Agonist-induced increase in protein synthesis (total cellular protein): effectively blocked the increases
[4]; PE (20 μM), 5219668 1.25 μM (FIG. 11)
  Agonist-induced increase in cell size (cell volume): effectively blocked the increases
[10]; PE (20 μM), 5219668 1.25 μM (FIG. 9)
  ANF induction in response to PE (secreted ANF): efficiently blocked ANF induction
